Results published in publication PMC8847585, “Induction of senescence-associated secretory phenotype underlies the therapeutic efficacy of PRC2 inhibition in cancer” (Cell Death & Disease, 2022).

What was measured:
H3K27me3 in HeLa cell = assay: Inhibition of cellular H3K27me3 (western blot quantification); type: cell-based; conditions: Homo sapiens, 72 hr of treatment, n = 3
Procedure: Cells were washed once with cold PBS and lysed by RIPA lysis buffer and incubated with 4 × SDS loading buffer at 95 °C for 10 min. Whole cell proteins were used for electrophoresis and then transferred to a nitrocellulose membrane. The membrane was blocked with Tris buffered saline containing 0.075% Tween-20 and 5% non-fat milk. Then the membranes were incubated with primary antibodies overnight at 4 °C. The next day, membranes were incubated with secondary antibodies for 1 h at room temperature.

[1] = test system: WSU-DLCL2 (EZH2-Y641F) cell; assay: Anti-proliferation of lymphoma cell WSU-DLCL2, viable cell count; type: cell-based; conditions: Homo sapiens, WSUDLCL2, 216 h, read-out: IC50 of proliferation inhibition
Procedure: (§1) Viable cell numbers were counted every 3 days up to 15 days by Vi-CELL (Beckman Coulter). For cell cycle analysis, MAK683 treated cells were fixed with pre-chilled 70% ethanol and kept at -20 degree overnight. On the second day, the cells were washed with cold PBS twice and collected by spin at 1000 rpm, digested with RNase A, then stained with 10 μg /mL Propidium Iodide in PBS solution for 30 min at room temperature. The stained cell samples were filtered through 70 μm cell strainer, and the staining signals were detected using flow cytometer (BD Fortessa). The acquired data were further analyzed by Modfit LT.

MCAS cells = assay: Cancer cell proliferation, viable cell count; type: cell-based; conditions: up to 15 days
Procedure: as §1

A2780 cells = assay: Cancer cell proliferation, viable cell count; type: cell-based; conditions: A2780 (ARID1A-deficiency), up to 15 days
Procedure: as §1

RD cells = assay: Cancer cell proliferation, viable cell count; type: cell-based; conditions: up to 15 days
Procedure: as §1

HeLa cells = assay: Cancer cell proliferation, viable cell count; type: cell-based; conditions: up to 15 days
Procedure: as §1

Hs700T cells = assay: Cancer cell proliferation, viable cell count; type: cell-based; conditions: Hs700T (SMARCA4-deficiency), up to 15 days
Procedure: as §1

G401 cells = assay: Cancer cell proliferation, viable cell count; type: cell-based; conditions: G401 (SMARCB1 deficiency), up to 15 days
Procedure: as §1

A204 cells = assay: Cancer cell proliferation, viable cell count; type: cell-based; conditions: A204 (SMARCB1 deficiency), up to 15 days
Procedure: as §1

G402 cells = assay: Cancer cell proliferation, viable cell count; type: cell-based; conditions: G402 (SMARCB1 deficiency), up to 15 days
Procedure: as §1

p16 KO G401 cells = assay: Proliferation of p16 KO G401 cells, viable cell count; type: cell-based; conditions: p16 KO G401 clones vs G401; MAK683 at 1 μM (proliferation), 3 μM 3 days (cell cycle)
Procedure: as §1
Two pairs of guide RNAs (Supplementary Table 1) targeting the exon2 of human CDKN2A (NM_000077) were designed using ChopChop website. gRNA oligos were synthesized, annealed and subcloned into the pSpCas9(BB)-2A-GFP (PX458). G401 and A2780 cell lines were transfected with the resultant plasmids, cultured for 48 h, and then applied to the single cell sorting for selecting GFP-positive cell by flow cytometer. Single cell clones were first cultured each well of 96-well plate, and then gradually expanded in larger cultures for further experiments. […]

p16 KO xenograft tumors = assay: Subcutaneous p16 KO G401 xenograft tumor study; type: in vivo, mice
Procedure: (§2) The animal study design and performance were evaluated and approved by Institutional Animal Care and Use Committee of ShanghaiTech University under the document number of 20201225001 and following the internationally recognized guidelines on animal welfare. To establish G401 xenograft models, WT G401 or p16 knock out cells were washed and resuspended in cold PBS and mixed with Matrigel at 1:1 (v/v) to reach the final ratio of 5 × 10^6 cells per 200 μL. Then the tumor cell mix were injected subcutaneously into the right flank of female Balb/c nude mice (5–6 weeks of age).
(§3) When tumor volume reached around 60-350 mm^3, the mice were numbered and randomized into vehicle or 100 mg/kg MAK683 treatment groups. The random numbers were generated using Excel (Software). The mice with tumor size out of the range were not included in the study. Empirically, at least 6 mice were included for each group. For compound dosing, MAK683 was resolved and suspended in water with 0.5% HPMC and 0.5% Tween at the concentration of 10 mg/mL. Dosing without blinding took place very day in the morning around 8 am. Mice weight and tumor volumes are measured and recorded every 3 days. Tumor volumes were calculated based on perpendicular length and width caliper measurements using the following formula: tumor volume (mm^3) = 0.5 × (length × width^2).
(§4) Tumor tissues were fixed in freshly-prepared 4% PFA for 24 hours, dehydrated through 30%, 50%, 70%, 85%, and 90% ethanol five-minute each, and 100% ethanol triple, permeabilized through xylene five-minute twice and then embedded in paraffin, and finally cut into 5 μm-thick sections. The sections were de-paraffinized with xylene for 10 min triple, rehydrated with ethanol from high to low concentration five minutes each and dH2O twice. […] After cool down to room temperature, endogenous peroxidase was inactivated with 3% H2O2 in methanol. Then the sections were washed with dH2O twice, blocked with 5% normal goat serum in PBS with 0.25% Triton X-100 for 1 hour at room temperature followed by primary antibodies incubation overnight at 4 °C. After HRP-conjugated secondary antibodies were incubated for 1 hours at room temperature, the sections were visualized with DAB. For quantification of Ki-67, H3K27me3 or ITGA2 positivity, the ratios of DAB positive cells to total cells in five representative fields were counted. For quantification of F4/80 positivity, the ratios of DAB positive area to total cells were counted. Five 40 × objective magnification fields per selection were counted and averaged.
Cell senescence study was used by Beyotime in Situ β-galactosidase Staining Kit. Adherent cells were fix by fix-buffer for 15 min at room temperature and wash with PBS twice, then stain by stain-buffer mixture at 37 °C overnight. […]

G401 xenograft tumors = assay: Subcutaneous G401 xenograft tumor study; type: in vivo, mice
Procedure: as §2, §3, §4
Cell senescence study was used by Beyotime in Situ β-galactosidase Staining Kit. Adherent cells were fix by fix-buffer for 15 min at room temperature and wash with PBS twice, then stain by stain-buffer mixture at 37 °C overnight. Frozen tissue sections were counterstained with eosin.

[2] = Body weight of tumor-bearing animals; type: in vivo; conditions: 100 mg/kg daily, G401 xenograft-bearing mice, 25 days
Procedure: as §3

[3] = p16 KO xenograft, 100 mg/kg, continuous treatment 46 days, treatment endpoint
[4] = 100 mg/kg po qd, 25 days treatment
[5] = WT G401 tumor, 100 mg/kg, continuous treatment 46 days, treatment endpoint

## CS(=O)(=O)c1ccc(-c2cnc(NCc3ccco3)n3cnnc23)cc1 [EED226]
H3K27me3 in HeLa cell
  IC50: 210 nM
[1]
  IC50: 35.9 nM

## CCN(c1cc(-c2ccc(CN3CCOCC3)cc2)cc(C(=O)NCc2c(C)cc(C)[nH]c2=O)c1C)C1CCOCC1 [EPZ6438]
MCAS cells
  Sensitivity of proliferation to treatment: not sensitive
A2780 cells
  Sensitivity of proliferation to treatment: similarly inhibited the proliferation
RD cells
  Sensitivity of proliferation to treatment: not sensitive
HeLa cells
  Sensitivity of proliferation to treatment: not sensitive

## Cc1ncccc1-c1cnc(NCc2c(F)ccc3c2CCO3)n2cnnc12 [MAK683]
H3K27me3 in HeLa cell
  IC50: 1.01 nM
MCAS cells
  Sensitivity of proliferation to treatment: not sensitive
Hs700T cells
  Sensitivity of proliferation to treatment: moderately sensitive
A2780 cells
  Sensitivity of proliferation to treatment: moderately sensitive
RD cells
  Sensitivity of proliferation to treatment: not sensitive
G401 cells
  Sensitivity of proliferation to treatment: sensitive
A204 cells
  Sensitivity of proliferation to treatment: sensitive
G402 cells
  Sensitivity of proliferation to treatment: sensitive
HeLa cells
  Sensitivity of proliferation to treatment: not sensitive
p16 KO G401 cells
  Response of p16 KO cells to induced cell cycle arrest and proliferation blockage: partially resistant
p16 KO xenograft tumors; p16 KO tumors, 46 days
  Ki67 positivity in tumors: reduced
p16 KO xenograft tumors; [3]
  T/C%: 35.81%
  TGI: 54.18%
p16 KO xenograft tumors; p16 KO xenografts, 46 days
  SA-β-gal signal in tumors: unchanged
G401 xenograft tumors; [4]
  TGI: 67.20%
  Tumor volume T/C%: 30.55%
G401 xenograft tumors; 100 mg/kg po qd, day 25
  Ki-67 in treated tumors (IHC): significantly reduced
  SA-β-gal activity in treated tumors: increased
G401 xenograft tumors; 100 mg/kg po qd, day 25, 4 h post treatment
  H3K27me3 in treated tumors (IHC): significantly decreased
G401 xenograft tumors; [5]
  T/C%: 7.21%
  TGI: 91.25%
G401 xenograft tumors; WT tumors, 46 days
  Ki67 positivity in tumors: reduced
  SA-β-gal signal in tumors: increased
[1]
  IC50: 1.15 nM
[2]
  Animals' body weight: unaffected
